According to patent US11021481B2, “Substituted isoindolin-1-ones and 2,3-dihydro-1h-pyrrolo[3,4-c]pyridin-1-ones as HPK1 antagonists” (Nimbus Saturn, Inc., priority 2019, dated 2021):

target: HPK1 (Homo sapiens (Human), UniProt Q92918); test: HPK1 biochemical enzyme assay (microfluidic mobility shift assay); conditions: 1.5 nM HPK1, ATP 1 mM final, 30 min preincubation, 60 min at RT, Caliper EZ Reader; read-out: HPK1 1000UMATP caliper IC50
Procedure, shortened: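 Ten-point compound titrations (top 3 μM final) preincubated 30 min with HPK1 and substrate, then reaction started with 1 mM ATP and 1 μM substrate, 5 mM MgCl2. After 60 min at RT, reaction terminated and product measured by microfluidic mobility shift.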

Sequence of HPK1 (Q92918 whole entry): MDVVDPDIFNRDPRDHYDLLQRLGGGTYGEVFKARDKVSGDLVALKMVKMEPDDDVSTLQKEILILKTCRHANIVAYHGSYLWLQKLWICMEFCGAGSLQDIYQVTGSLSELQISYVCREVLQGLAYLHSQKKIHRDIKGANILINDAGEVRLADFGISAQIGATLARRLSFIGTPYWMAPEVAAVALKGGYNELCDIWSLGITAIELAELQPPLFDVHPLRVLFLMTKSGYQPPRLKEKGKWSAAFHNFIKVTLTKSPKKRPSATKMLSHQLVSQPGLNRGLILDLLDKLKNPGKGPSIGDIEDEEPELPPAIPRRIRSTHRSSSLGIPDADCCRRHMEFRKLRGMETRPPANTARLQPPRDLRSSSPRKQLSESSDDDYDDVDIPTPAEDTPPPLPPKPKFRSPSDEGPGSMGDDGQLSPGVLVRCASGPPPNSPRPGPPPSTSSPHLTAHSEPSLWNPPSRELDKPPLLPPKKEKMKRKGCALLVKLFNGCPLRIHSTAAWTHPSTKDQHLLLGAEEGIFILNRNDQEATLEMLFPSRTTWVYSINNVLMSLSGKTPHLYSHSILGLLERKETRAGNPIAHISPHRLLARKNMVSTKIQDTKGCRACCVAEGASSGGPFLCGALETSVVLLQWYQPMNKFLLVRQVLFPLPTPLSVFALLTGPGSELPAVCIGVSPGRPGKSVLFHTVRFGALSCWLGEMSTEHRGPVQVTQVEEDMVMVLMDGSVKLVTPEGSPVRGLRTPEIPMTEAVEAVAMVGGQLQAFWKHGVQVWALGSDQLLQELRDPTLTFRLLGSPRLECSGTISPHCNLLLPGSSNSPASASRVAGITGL

Row | SMILES | IC50 [nM]
1 | Cn1ccc2c(-c3ncc(Nc4ccc(N5C[C@@H]6C[C@H]5CO6)cn4)c4c3CNC4=O)ccnc21 [I-309, 7-((5-((1S,4S)-2-oxa-5-azabicyclo[2.2.1]heptan-5-yl)pyridin-2-yl)amino)-4-(1-methyl-1H-pyrrolo[2,3-b]pyridin-4-yl)-2,3-dihydro-1H-pyrrolo[3,4-c]pyridin-1-one] | < 100
2 | O=C1NCc2c(-c3cnc4cc(F)ccn34)ncc(Nc3ccc(N4CCCC(O)(CN5CCOCC5)C4)cn3)c21 (stereo not drawn) [I-654, 4-(7-fluoroimidazo [1,2-a]pyridin-3-yl)-7-((5-(3-hydroxy-3-(morpholinomethyl)piperidin-1-yl)pyridin-2-yl)amino)-2.3-dihydro-1H-pyrrolo[3,4-c]pyridin-1-one] | < 100
3 | O=C1NCc2c(-c3cnc4cc(F)ccn34)ccc(Nc3ccc([C@@H]4CCOC4)c(CN4CCC(F)(F)C4)n3)c21 [I-718, (S)-7-((6-((3,3-difluoropyrro-lidin-1-yl)methyl)-5-(tetrahydrofuran-3-yl)pyridin-2-yl)amino)-4-(7-fluoroimidazo [1,2-a]pyridin-3-yl)isoindolin-1-one] | < 100
4 | Cc1ccc2c(-c3ccc(Nc4ccc(N5CCN(C)CC5)cn4)c4c3CNC4=O)cnn2c1 [I-65, 7-[[5-(4-methylpiperazin-1-yl)-2-pyridyl]amino]-4-(6-methylpyrazolo [1,5-a]pyridin-3-yl)isoindolin-1-one] | < 100
5 | C[C@H]1NC(=O)c2c(Nc3ccc(N4CCC(O)CC4)cn3)ccc(-c3cnc4ccccn34)c21 [I-317, (R)-7-((5-(4-hydroxy-piperidin-1-yl)pyridin-2-yl)amino)-4-(imidazo[1,2-a]pyridin-3-yl)-3-methylisoindo-lin-1-one] | < 100
6 | CN[C@@H]1CCCN(c2cccc(Nc3cnc(-c4ccnc5c4ccn5C)c4c3C(=O)NC4)n2)C1 [I-239, 7-[[6-[(3R)-3-(methylamino)-1-piperidyl]-2-pyridyl]-amino]-4-(1-methylpyrrolo [2,3-b]pyridin-4-yl)-2,3-dihydropyrrolo [3,4-c]pyridin-1-one] | 100 to 1000
7 | CCn1ccc2c(-c3ccc(Nc4ccc(N5CCN(C)CC5)cn4)c4c3CNC4=O)ccnc21 [I-49] | < 100
8 | CN1CC[C@@]12CCN(c1cccc(Nc3cnc(-c4ccnc5c4ccn5C)c4c3C(=O)NC4)n1)C2 [I-616, (S)-7-((6-(1-methyl-1,6-diazaspiro[3,4]octan-6-yl)pyridin-2-yl)amino)-4-(1-methyl-1H-pyrrolo[2,3-b)pyridin-4-yl)-2,3-dihydro-1H-pyrrolo[3,4-c]pyridin-1-one] | < 100
9 | CC(C)(C)NCc1nc(Nc2ccc(-c3cnc4cc(F)ccn34)c3c2C(=O)NC3)ccc1C1CCOC1 (stereo not drawn) [I-848, 7-[[6-[(tert-butylamino)methyl]-5-tetrahydrofuran-3-yl-2-pyridyl]amino]-4-(7-fluoroimidazo [1,2-a]pyridin-3-yl)isoindolin-1-one] | < 100
10 | C[C@@H]1NC(=O)c2c(Nc3ccc(N4CCC(O)CC4)cn3)ccc(-c3cnc4ccccn34)c21 [I-316, (S)-7-((5-(4-hydroxypip-eridin-1-yl)pyridin-2-yl)amino)-4-(imidazo[1,2-a]pyridin-3-yl)-3-methylisoindo-lin-1-one] | > 1000
11 | O=C1NCc2c(-c3cnc4cc(F)ccn34)ccc(Nc3cccc(O[C@H]4CCC[C@H]4O)n3)c21 (stereo in doubt) [I-354, 4-(7-fluoroimidazo [1,2-a]pyridin-3-yl)-7-((6-(((lR,2S)-2-hydroxycyclopentyl)oxy)pyri-din-2-yl)amino)isoin-dolin-1-one] | > 1000
12 | CN(C)Cc1nc(Nc2cnc(-c3ccnc4c3ccn4C)c3c2C(=O)NC3)ccc1[C@@H]1CCOC1 (stereo in doubt) [I-707] | < 100
13 | Cc1ccc2c(-c3ncc(Nc4ccc(N5CCN(C)CC5)cn4)c4c3CNC4=O)c(C)[nH]c2n1 [I-17, 4-(2,6-dimethyl-1H-pyrrolo[2,3-b]pyridin-3-yl)-7-[[5-(4-methylpiperazin-1-yl)-2-pyridyl]amino]-2,3-dihydropyrrolo [3,4-c]pyridin-1-one] | > 1000
14 | Cn1ccc2c(-c3ncc(Nc4ccc(N5CCC[C@](O)(CN6CCOCC6)C5)cn4)c4c3CNC4=O)ccnc21 (single isomer, unassigned) [I-674] | < 100

More lines, now with the values ahead:

Row | IC50 [nM] | SMILES
15 | < 100 | Cc1ccn2c(-c3ccc(Nc4ccc(N5CCO[C@H](CO)C5)cn4)c4c3CNC4=O)cnc2n1 [I-452, 7-[[5-[(2S)-2-(hydroxymeth-yl)morpholin-4-yl]-2-pyridyl]amino]-4-(7-methylimidazo [1,2-a]pyrimidin-3-yl)isoindolin-1-one]
16 | < 100 | O=C1NCc2c(-c3cnc4cc(F)ccn34)ccc(Nc3ccc(C4(O)CCOCC4)cn3)c21 [I-371, 4-(7-fluoroimidazo [1,2-a]pyridin-3-yl)-7-((5-(4-hydroxtetra-hydro-2H-pyran-4-yl)pyridin-2-yl)amino)isoin-dolin-1-one]
17 | < 100 | Cc1cccc2c(-c3ccc(Nc4ccc(N5CCC(O)CC5)cn4)c4c3CNC4=O)cnn12 [I-136, 7-[[5-(4-hydroxy-1-piperidyl)-2-pyripyl]amino]-4-(7-methylpyrazolo[1,5-a]pyridin-3-yl)isoindolin-1-one]
18 | < 100 | COCC1CN(c2ccc(Nc3ccc(-c4cnc5nc(C)ccn45)c4c3C(=O)NC4)nc2)CCO1 (stereo in doubt) [I-629, (S)-7-((5-(2-(methoxymeth-yl)morpho-lino)pyridin-2-yl)amino)-4-(7-methylimidazo [1,2-a]pyrimidin-3-yl) isoindolin-1-one]
19 | < 100 | CN(C)CC1COCCN1c1ccc(Nc2ccc(-c3cnc4cc(F)ccn34)c3c2C(=O)NC3)nc1 (stereo not drawn) [I-517, 7-[ [5-[3-[(dimethylamino)-methyl]mor-pholin-4-yl]-2-pyridyl]amino]-4-(7-fluoroimidazo [1,2-a]pyridin-3-yl)isoindolin-1-one]
20 | < 100 | COCC1CN(c2ccc(Nc3ccc(-c4cnc5cnccn45)c4c3C(=O)NC4)nc2)CCO1 (stereo in doubt) [I-334, (R)-4-(imidazo[1,2-a]pyrazin-3-yl)-7-((5-(2-(methoxymeth-yl)morpholino)-pyridin-2-yl)amino)isoin-dolin-1-one]
21 | < 100 | CN(C)Cc1nc(Nc2ccc(-c3cnc4cc(F)ccn34)c3c2C(=O)NC3)ccc1[C@H]1CCCO1 [I-554, (R)-7-((6-((dimethylamino)-methyl)-5-(tetrahydrofuran-2-yl)pyridin-2-yl)amino)-4-(7-fluoroimidazo [1,2-a]pyridin-3-yl)isoindolin-1-one]
22 | < 100 | O=C1NCc2c(-c3cnc4cc(F)ccn34)ccc(Nc3ccc(N4CCC[C@@]5(CNCCO5)C4)cn3)c21 [I-507, (R)-7-((5-(1-oxa-4,8-diazaspiro[5.5]undecan-8-yl)pyridin-2-yl)amino)-4-(7-fluoroimidazo [1,2-a]pyridin-3-yl)isoindolin-1-one]
23 | < 100 | O=C1NCc2c(-c3cnc4cnccn34)ccc(Nc3ccc(N4CCC[C@H](O)CC4)cn3)c21 [I-328, (S)-7-((5-(4-hydroxyazepan-1-yl)pyridin-2-yl)amino)-4-(imidazo[1,2-a]pyrazin-3-yl)isoindolin-1-one]
24 | < 100 | CN(C)Cc1nc(Nc2ccc(-c3cnc4cc(F)ccn34)c3c2C(=O)NC3)ccc1N1CC[C@@H](F)[C@H](O)C1 [I-700, 7-((6-((dimethylamino)-methyl)-5-((3R,4R]-4-fluoro-3-hydroxypiperidin-1-yl)pyridin-2-yl)amino)-4-(7-fluoroimidazo [1,2-a]pyridin-3-yl)isoindolin-1-one]
25 | < 100 | O=C1NCc2c(-c3cnc4cnccn34)ccc(Nc3ccc(N4CCOC(CO)C4)cn3)c21 (stereo not drawn) [I-358, 7-((5-(2-(hydroxymeth-yl)morpholino)-pyridin-2-yl)amino)-4-(imidazo[1,2-a]pyrazin-3-yl)isoindolin-1-one]
26 | < 100 | Cc1ccn2c(-c3ccc(Nc4ccc(N5CCC(O)CC5)cn4)c4c3CNC4=O)cnc2c1 [I-126, 7-[[5-(4-hydroxy-1-piperidyl)-2-pyridyl]amino]-4-(7-methylimidazo [1,2-a]pyridin-3-yl)isoindolin-1-one]
27 | 100 to 1000 | COCCNc1ccn2c(-c3ccc(Nc4ccc(N5CCC(O)CC5)cn4)c4c3CNC4=O)cnc2c1 [I-205, 7-[[5-(4-hydroxy-1-piperidyl)-2-pyridyl]-amino]-4-[7-(2-methoxyethyl-amino)imidazo [1,2-a]pyridin-3-yl]isoindolin-1-one]
28 | < 100 | CN1CCN(c2ccc(Nc3cnc(-c4cnc5c(F)cccn45)c4c3C(=O)NC4)nc2)C[C@H]1C(C)(C)O (stereo in doubt) [I-621, (R]-4-(8-fluoroimidazo [1,2-a]pyridin-3-yl)-7-((5-(3-(2-hydroxypropan-2-yl)-4-methylpiperazin-1-yl)pyridin-2-yl)amino)-2.3-dihydro-1H-pyrrolo[3,4-c]pyridin-1-one]
29 | < 100 | COC[C@H]1CN(c2ccc(Nc3cnc(-c4ccnc5c4ccn5C)c4c3C(=O)NC4)nc2)CC[C@H]1O [I-423, 7-((5-((3R,4R)-4-hydroxy-3-(methoxymeth-yl)piperidin-1-yl)pyridin-2-yl)amino)-4-(1-methyl-l H-4-pyrrolo[2,3-b]pyridin-4-yl)-2,3-dihydro-1H-pyrrolo[3,4-c]pyridin-1-one]
30 | < 100 | O=C1NCc2c(-c3cnc4n3CCOC4)ccc(Nc3ccc(N4CCC(O)CC4)cn3)c21 [I-143]
31 | < 100 | O=C1NCc2c(-c3cnc4c(F)cccn34)ccc(Nc3ccc(N4CCNCC4)cn3)c21 [I-88, 4-(8-fluoroimidazo [1,2-a]pyridin-3-yl)-7-[(5-piperazin-1-yl-2-pyridyl)amino] isoindolin-1-one]
32 | < 100 | CC(C)(N)[C@@H]1CN(c2ccc(Nc3ccc(-c4cnc5cc(F)ccn45)c4c3C(=O)NC4)nc2)CCO1 (single isomer, unassigned) [I-670]
33 | < 100 | O=C1NCc2c(-c3cnc4cnccn34)ccc(Nc3ccc(N4CCC(O)CC4)cn3)c21 [I-133, 7-[[5-(4-hydroxy-1-piperidyl)-2-pyridyl]amino]-4-imidazo[1,2-a]pyrazin-3-yl-isoindolin-1-one]
